Article PMC8913746, “An open-like conformation of the sigma-1 receptor reveals its ligand entry pathway” (Nature Communications, 2022)
Substitutions are numbered along the chain they refer to. Where “and” joins values, the source holds several entries; their conditions need not be identical. Equal entries are not always repeated.

Key:
[1] = Dissolution of DIM-3C for crystal soaking; format: physicochemical; details: for soaking xlσ1R crystals
From the text: Finally, it is worth mentioning another structural effort that we attempted to capture an open conformation of σ1R by soaking a ligand of extended length into the xlσ1R crystals. We anticipated that the ligand would extend through the ligand entrance and cause the receptor to adopt an open state. Such an extended ligand, N^1,N^3-bis(1-((R)-3-([1,1′-biphenyl]-4-yl)butyl)-piperidin-4-yl)malonamide (DIM-3C)[21], was kindly provided by Dr. Collina and Dr. Rossino for soaking the xlσ1R crystals. […] The density was readily and best modeled with an S1RA molecule. Its morpholine ring sits between α4 and α5 and is surrounded by residues 179, 203, and Leu97, whereas the rest of the ligand remains outside of the receptor, possibly representing an entering (or exiting) pose for the ligand. Meanwhile, due to the relatively low resolution (3.80 Å) of the xlσ1RC179/C203-S1RA structure, this extra density needs to be interpreted with caution, and we used it only for supplementary discussion.

xlσ1R-C179/C203 = target: T1, xlσ1R-C179/C203 (Xenopus laevis, UniProt Q6DCU6, L179C/Y203C); assay: ITC binding of PRE084 to xlσ1R-C179/C203 (disulfide oxidation / re-reduction)
T1 construct: The gene encoding the full-length wild-type σ1R from Xenopus laevis; hemagglutinin signal peptide (N); decahistidine (His10) (N); TEV protease recognition site (N); made in house; host or cells: Pichia pastoris GS115
T1 sequence (Q6DCU6 1-221 L179C/Y203C): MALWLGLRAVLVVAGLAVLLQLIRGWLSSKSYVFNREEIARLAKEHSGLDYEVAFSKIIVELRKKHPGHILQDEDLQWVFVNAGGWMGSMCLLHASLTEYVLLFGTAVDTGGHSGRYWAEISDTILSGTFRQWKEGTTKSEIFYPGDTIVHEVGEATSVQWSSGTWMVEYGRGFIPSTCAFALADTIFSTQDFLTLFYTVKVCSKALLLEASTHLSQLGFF

xlσ1R-C179 = target: T2, xlσ1R-C179 (Xenopus laevis, UniProt Q6DCU6, L179C); assay: ITC binding of PRE084 to xlσ1R-C179 before/after mPEG-Mal-5K modification
T2 construct: The gene encoding the full-length wild-type σ1R from Xenopus laevis; hemagglutinin signal peptide (N); decahistidine (His10) (N); TEV protease recognition site (N); made in house; host or cells: Pichia pastoris GS115
T2 sequence (Q6DCU6 1-221 L179C): T1 sequence (Q6DCU6 1-221 L179C/Y203C) with C203Y

xlσ1R-C203 = target: T3, xlσ1R-C203 (Xenopus laevis, UniProt Q6DCU6, Y203C); assay: ITC binding of PRE084 to xlσ1R-C203 before/after mPEG-Mal-5K modification
T3 construct: The gene encoding the full-length wild-type σ1R from Xenopus laevis; hemagglutinin signal peptide (N); decahistidine (His10) (N); TEV protease recognition site (N); made in house; host or cells: Pichia pastoris GS115
T3 sequence (Q6DCU6 1-221 Y203C): T1 sequence (Q6DCU6 1-221 L179C/Y203C) with C179L

wild-type xlσ1R = target: T4, wild-type xlσ1R (Xenopus laevis, UniProt Q6DCU6); assay: ITC binding of PRE084 to wild-type xlσ1R before/after mPEG-Mal-5K modification; details: for WT stoichiometry, After modification: mPEG-Mal-5K; for Kd: WT Kd
T4 construct: The gene encoding the full-length wild-type σ1R from Xenopus laevis; hemagglutinin signal peptide (N); decahistidine (His10) (N); TEV protease recognition site (N); made in house; host or cells: Pichia pastoris GS115
T4 sequence (Q6DCU6 1-221): T1 sequence (Q6DCU6 1-221 L179C/Y203C) with C179L, C203Y

xls1R-C179 or xls1R-C203 = assay: mPEG-Mal-5K modification of xlσ1R cysteine mutants with added PRE084 (SDS-PAGE); format: biochemical, Xenopus laevis; details: 1 mM PRE084 added to dialyzed protein sample before mPEG-Mal-5K treatment
Description: Modification of wild-type and cysteine mutants of xlσ1R was performed with a bulky thiol-modifying reagent, methoxypolyethylene glycol maleimide 5000 (mPEG-Mal-5K)[33]. Briefly, the SEC-purified xlσ1R protein in the absence of β-mercaptoethanol were incubated with 1 mM mPEG-Mal-5K at room temperature for 1 h, and the modification reaction was stopped by addition of β-mercaptoethanol to a final concentration of 10 mM before another SEC purification to remove any free mPEG-Mal-5K. For the entrance blocking experiment, the modified xlσ1R-C179 or xlσ1R-C203 proteins were subjected to ITC or SDS-PAGE analysis. For the assessment of disulfide formation in xlσ1R-C179/C203, the modified sample was analyzed by SDS-PAGE. To reduce background modification and facilitate gel analysis, the only native cysteine (Cys91) was mutated to serine in all samples for the disulfide analysis. […]
would affect the modification efficiency (Response Fig. 1). However, extensive dialysis of the […]
1 to lane 5 for C179, and lane 3 to la ne 7 f o r C2 03). […]
modification efficiency (compare lane 1 to lane 2 for C179, and lane 3 to lane 4 for C203).
Therefore, it seems less likely that the ligand binding hindered mPEG -Ma l-5K modification. […]
before mPEG-Ma l-5K treatment were indicated above the gel. Protein samples were analyzed by SDS-PAGE and Coomassie blue staining. […]

wild-type xls1R = target: T5, wild-type xls1R (Xenopus laevis, UniProt Q6DCU6); assay: Resistance of wild-type xlσ1R to chymotrypsin with added PRE084 (SDS-PAGE); format: biochemical; details: 1 mM PRE084 added to dialyzed protein before chymotrypsin treatment
T5 construct: The gene encoding the full-length wild-type σ1R from Xenopus laevis; hemagglutinin signal peptide (N); decahistidine (His10) (N); TEV protease recognition site (N); made in house; host or cells: Pichia pastoris GS115
T5 sequence (Q6DCU6 1-221): T1 sequence (Q6DCU6 1-221 L179C/Y203C) with C179L, C203Y

[2] = equilibrium dissociation constant (Kd)
[3] = ITC, Mean of repeats (source data Fig. 4e)
[4] = ITC, individual repeats (source data Fig. 4e)

## C[C@H](CCN1CCC(NC(=O)CC(=O)NC2CCN(CC[C@@H](C)c3ccc(-c4ccccc4)cc3)CC2)CC1)c1ccc(-c2ccccc2)cc1 [DIM-3C, N^1,N^3-bis(1-((R)-3-([1,1′-biphenyl]-4-yl)butyl)-piperidin-4-yl)malonamide]
[1]
  solubility: could only be dissolved with organic solvents such as methanol and dimethyl sulfoxide

## O=C(OCCN1CCOCC1)C1(c2ccccc2)CCCCC1 [PRE084, [2-(morpholin-4-yl)ethyl] 1-phenylcyclohexane-1-carboxylate]
xlσ1R-C179/C203; C179/C203 Kd, After oxidation
  Kd: 7810 nM and 5080 nM and 7240 nM
xlσ1R-C179/C203; C179/C203 Kd, Before oxidation
  Kd: 960 nM and 710 nM and 380 nM and 510 nM and 850 nM
xlσ1R-C179/C203; C179/C203 Kd, Re-reduction
  Kd: 1760 nM and 1390 nM and 1450 nM and 1570 nM
xlσ1R-C179/C203; [2]
  Kd: 680 nM and 6710 nM and 1540 nM
xlσ1R-C179; C179 Kd, After modification
  Kd: 1910 nM and 2010 nM and 1930 nM and 1970 nM
xlσ1R-C179; C179 Kd, Before modification
  Kd: 972 nM and 990 nM and 1090 nM and 1040 nM
xlσ1R-C179; [2]
  Kd: 1020 nM and 1950 nM
xlσ1R-C203; C203 Kd, After modification
  Kd: 1500 nM and 1730 nM and 1620 nM
xlσ1R-C203; C203 Kd, Before modification
  Kd: 971 nM and 977 nM and 1030 nM
xlσ1R-C203; [3]
  C203 stoichiometry, Before modification: 0.8717
xlσ1R-C203; [2]
  Kd: 1610 nM and 990 nM
wild-type xlσ1R
  change of affinity (Kd) after mPEG-Mal-5K treatment: changed little
wild-type xlσ1R; [3]
  WT stoichiometry, Before modification: 0.8695
  WT stoichiometry, After modification: 0.9143
wild-type xlσ1R; [4]
  WT stoichiometry, Before modification: 0.883 and 0.874 and 0.993 and 0.728
  WT stoichiometry, After modification: 0.933 and 0.896 and 0.874 and 1.040 and 0.883 and 0.860
wild-type xlσ1R; ITC, modification of native Cys91
  change of stoichiometry (number of available binding sites per protomer) after mPEG-Mal-5K treatment: changed little
wild-type xlσ1R; After modification
  Kd: 1.22 µM and 1.29 µM and 1.23 µM and 1.08 µM (2×) and 1.12 µM
wild-type xlσ1R; Before modification
  Kd: 1120 nM and 1210 nM and 871 nM and 1100 nM
xls1R-C179 or xls1R-C203
  effect of added ligand on mPEG-Mal-5K modification efficiency: no appreciable effect
wild-type xls1R
  effect of added ligand on chymotrypsin digestion: no appreciable effect
